# According to the NIST ThermoML archive (doi:10.1007/s10765-008-0390-4):
# ± gives the expanded uncertainty stated by the source.
# Assays:
# [1] = 101 kPa, Liquid
# [2] = xn = mol fraction of the nth substance listed; conditions: 101 kPa, Liquid, x1 = 1
Compound,mass density ([1]; 288.15 K) [kg/m3],mass density ([1]; 293.15 K) [kg/m3],mass density ([1]; 298.15 K) [kg/m3],mass density ([1]; 303.15 K) [kg/m3],mass density ([1]; 308.15 K) [kg/m3],mass density ([1]; 313.15 K) [kg/m3],mass density ([2]; 288.15 K) [kg/m3],mass density ([2]; 293.15 K) [kg/m3],mass density ([2]; 298.15 K) [kg/m3],mass density ([2]; 303.15 K) [kg/m3],mass density ([2]; 308.15 K) [kg/m3],mass density ([2]; 313.15 K) [kg/m3]
c1ccccc1 [benzene],884.246 ± 0.15,878.918 ± 0.16,873.582 ± 0.16,868.233 ± 0.17,862.871 ± 0.17,857.498 ± 0.17,–,–,–,–,–,–
CCCCO [butan-1-ol],813.373 ± 0.24,809.573 ± 0.24,805.762 ± 0.25,801.923 ± 0.25,798.053 ± 0.25,794.147 ± 0.25,–,–,–,–,–,–

# The next lines start with the values.
mass density ([1]; 288.15 K) [kg/m3],mass density ([1]; 293.15 K) [kg/m3],mass density ([1]; 298.15 K) [kg/m3],mass density ([1]; 303.15 K) [kg/m3],mass density ([1]; 308.15 K) [kg/m3],mass density ([1]; 313.15 K) [kg/m3],mass density ([2]; 288.15 K) [kg/m3],mass density ([2]; 293.15 K) [kg/m3],mass density ([2]; 298.15 K) [kg/m3],mass density ([2]; 303.15 K) [kg/m3],mass density ([2]; 308.15 K) [kg/m3],mass density ([2]; 313.15 K) [kg/m3],Compound
–,–,–,–,–,–,813.373 ± 0.24,809.573 ± 0.24,805.762 ± 0.25,801.923 ± 0.25,798.053 ± 0.25,794.147 ± 0.25,CCCCO [butan-1-ol] + c1ccccc1
–,–,–,–,–,–,813.373 ± 0.24,809.573 ± 0.24,805.762 ± 0.25,801.923 ± 0.25,798.053 ± 0.25,794.147 ± 0.25,CCCCO [butan-1-ol] + ClC(Cl)Cl
1498.08 ± 0.47,1488.64 ± 0.46,1479.15 ± 0.45,1469.61 ± 0.45,1460.03 ± 0.44,1450.41 ± 0.43,–,–,–,–,–,–,ClC(Cl)Cl [trichloromethane]
